# Experimental data reported in US11701361B2, “p110-delta inhibitors treat and prevent autoimmunity while sparing the ability to mount an immune response to exogenous immunogens” (THE REGENTS OF THE UNIVERSITY OF COLORADO, priority 2018, dated 2023).
# Legend:
# [1] = tested on: SHP-1^−/− B cells; experiment: adoptive transfer of autoreactive SHP-1-/- Ars/A1 B cells, loss of anergy; assay type: in vivo, mouse
# Excerpt: (§1) Except where otherwise indicated, 6-16 week old mice were used in all experiments. Both male and female mice were used, but experiments were sex matched and both sexes gave identical results, with the exception of only female mice being used in the VH125.NOD experiments as female mice develop accelerated disease. hCD20-TamCre animals (Khalil, et al. Science 336: 1178-81) were intercrossed with mice carrying the rosa26-flox-STOP-YFP allele (Srinivas, et al., BMC Dev. Biol. 1:4), generating mice in which YFP is expressed in B cells upon Cre activation. These mice were crossed with Ars/A1 (Benschop, et al., Immunity 14: 33-43) transgenic mice to generate hCD20-TamCre×rosa26-flox-STOP-YFP×Ars/A1 mice. B cells from these mice will be referred to as WT Ars/A1. These mice were also crossed with SHIP-1^flox/flox mice (Karlsson, et al. J Exp Med 198: 333-40). hCD20-TamCre×rosa26-flox-STOP-YFP×Ars/A1 mice were also crossed to PTEN^flox/flox mice (Anzelon, et al., Nat Immunol 4: 287-94) and SHP-1^flox/flox mice to generate mice in which SHIP-1, PTEN and SHP-1 deletion can be induced in anergic B cells. hCD20-TamCre×rosa26-flox-STOP-YFP×PTEN^flox/flox×Ars/A1 were crossed to hCD20-TamCre×rosa26-flox-STOP-YFP×SHIP-1^flox/flox×Ars/A1 to generate hCD20-TamCre×rosa26-flox-STOP-YFPx PTEN^flox/wt×SHIP-1^flox/wt×Ars/A1 to allow for the double haploinsufficiency of both PTEN and SHIP-1 within B cells.
# (§2) 2 hours before adoptive transfer, C57BL/6 recipient mice received 200 rads irradiation. […] B cells from donor mice were isolated via depletion of CD43+ cells with anti-CD43-conjugated magnetic beads (MACS anti-mouse CD43; Miltenyi Biotec). Alternatively, CD4+ T cells were isolated via CD4 positive selection (MACS anti-mouse CD4 (L3T4) Miltenyi Biotec). Resultant populations were >97% pure based on flow cytometric analyses. Donor B cells were labeled with either CellTrace Violet (Molecular Probes) or CFSE (Molecular Probes) at 5 μM for 5 minutes at room temperature prior to transfer. Donor CD4 T cells were labeled with CFSE (Molecular Probes) at 5 μM for 5 minutes at room temperature prior to transfer. 1-2×10^6 donor cells in 200 μl PBS were adoptively transferred via IV injection. 24 hours post transfer, tamoxifen was administered to activate Cre. Tamoxifen (Sigma-Aldrich) was dissolved in 100% corn oil (Sigma-Aldrich) at 20 mg/ml. Recipient mice were injected IP with 100 μl (2 mg) on two consecutive days.
# (§3) Diet dose (DD) is calculated by multiplying the single daily dose (SD) by the body weight of a mouse (BW) and dividing that by the daily food intake (FI) [DD=(SD×BW)/FI].
# (§4) For VH125.NOD experiments animals are placed on control chow immediately after weaning.
# (§5) Spleens were mechanically disrupted, single-cell suspensions were generated, and red blood cells were lysed with ammonium chloride TRIS. Cells were resuspended in PBS containing 1% FBS and incubated with indicated antibodies. For analysis of cell surface markers, antibodies against the following molecules were used: B220-PE (BioLegend), B220-BV786 (BD Biosciences), B220-BV510 (BioLegend), CD4-BV711 (BioLegend), CD8-BV421 (BioLegend), CD138-PECy7 (BioLegend), CD69-BV786 (BD Biosciences), CD86-PerCPCy5.5 (BioLegend). After cell surface staining, the cells were fixed and permeabilized with Cytofix/Cytoperm (BD) per manufacturer's instructions and stained with Dylight650-E4 anti-Ars/A1 idiotype (produced and conjugated in our laboratory) OR HEL-650 (produced and conjugated in our laboratory) and Alexa Fluor 488-anti-GFP (rabbit polyclonal; Life Technologies). Events were collected on a CyAn ADP (Dako) and subsequent analysis using FlowJo software (Tree Star).
# (§6) For detection of IgM^a anti-Ars antibodies, microtiter plates were coated with 10 μg/ml Ars-BSA16 in PBS and blocked with 2 mg/ml BSA in PBS 0.05% Tween-20. For detection of IgM^a anti-HEL antibodies, microtiter plates were coated with 10 μg/ml HEL in PBS and blocked with 2 mg/ml BSA in PBS 0.05% Tween-20. […]
# [2] = tested on: CD4 T cells; experiment: calcium mobilization of CD4 T cells after TCR aggregation; assay type: cell-based, mouse; conditions: 15 nM idelalisib, biotin-anti-CD3 and avidin
# Procedure: (§7) For measurements of intracellular free calcium concentration ([Ca^2+]i), RBC-depleted single-cell suspended splenocytes were simultaneously stained with CD8-PE (BD Biosciences), CD4-APC (BioLegend) or B220-PE and loaded with Indo-1 acetoxymethyl (Molecular Probes), as described previously (Gauld, et al., Nat Immunol 6: 1160-1167). For analysis of ([Ca^2+]i), cells were suspended at 10×10^6 cells/ml in warm IMDM+2% FBS in a 500 ul volume. […] Mean relative ([Ca^2+]i) was monitored over time using an LSR Fortessa X-20 (BD) with analysis using FlowJo software.
# Because a therapeutic effect of the inhibitor on VH125.NOD disease progression and survival was observed, reduction in autoantibody responses in PTEN^−/+×SHIP-1^−/+ cells, yet equivalent autoantibody responses by SHP-1^−/− and MD4 B cells in mice receiving 0.9375 mg/kg idelalisib-containing chow, we chose to focus our analysis on effects of this dose on T cell function. […] To analyze in vivo CD4 T cell responses, OT-II CD4 T cells were adoptively transferred into congenically mismatched recipients and immunized with OVA+P:IC as represented diagrammatically in FIG. 6C. […] The transferred OT-II cells that proliferated most underwent the greatest upregulation of CD44 (FIG. 6D).
# [3] = tested on: PTEN^−/+×SHIP-1^−/+ B cells; experiment: adoptive transfer of autoreactive PTEN-/+ x SHIP-1-/+ Ars/A1 B cells, loss of anergy; assay type: in vivo, mouse; conditions: for number of autoreactive ASCs/spleen: day 14
# Excerpt: as §1, §2, §3, §4, §5, §6
# [4] = tested on: splenic B cells from C57BL/6 mice; experiment: BCR-mediated calcium flux in B cells; assay type: cell-based, mouse; conditions: 15 nM, 60 nM and 490 nM idelalisib added simultaneously with anti-Ig heavy and light chain F(ab′)2
# Procedure: as §7
# [5] = 0.9375 mg/kg or 3.75 mg/kg chow vs vehicle
# [6] = 0.9375 mg/kg, 3.75 mg/kg and 30 mg/kg chow, relative to vehicle control chow
smiles,measurement,setting,value
"CC[C@H](Nc1ncnc2nc[nH]c12)c1nc2cccc(F)c2c(=O)n1-c1ccccc1 [idelalisib, 5-fluoro-3-phenyl-2-[(1S)-1-(7H-purin-6-ylamino)propyl]-4(3H)-quinazolinone]",differentiation of SHP-1−/− B cells (plasmablasts),[1]; [5],equivalent amounts
same,proliferation of SHP-1−/− B cells,[1]; [5],equivalent amounts
same,differentiation of SHP-1−/− B cells (plasmablasts),[1]; 30 mg/kg chow,decreased
same,proliferation of SHP-1−/− B cells,[1]; 30 mg/kg chow,decreased
same,recovery of adoptively transferred SHP-1−/− B cells from the spleens (trend of reduced recovery),[1]; animals receiving idelalisib-containing chow,not significant
same,"autoimmunity (autoantibody, ASCs)",[1]; high dose (30 mg/kg chow),blocked
same,"loss of anergy caused by SHP-1 induced deficiency (autoantibody, ASCs)",[1]; low and intermediate dose (0.9375 and 3.75 mg/kg chow),no effect
same,calcium mobilization of CD4 T cells,[2],failed to inhibit
same,number of autoreactive ASCs/spleen,[3]; 0.9375 mg/kg and 3.75 mg/kg chow,significantly reduced
same,serum autoantibody (IgM^a anti-Ars),"[3]; 0.9375 mg/kg, 3.75 mg/kg and 30 mg/kg chow, day 14, relative to untreated controls",significantly decreased
same,plasmablast differentiation as measured by CD138 positivity,[3]; [6],significantly decreased
same,proliferation of transferred B cells,[3]; [6],significantly decreased
same,number of autoreactive ASCs/spleen,[3]; 30 mg/kg chow,undetected
same,total Ars/A1 idiotype+ YFP+ B cells in the spleens (recovery of transferred cells),"[3]; day 14 post transfer, regardless of treatment",no significant difference
same,calcium mobilization,[4],suppressed
